{
  "source": "ChEMBL document CHEMBL4765237",
  "about": "“Structural optimization and structure-activity relationship studies of N-phenyl-7,8-dihydro-6H-pyrimido[5,4-b][1,4]oxazin-4-amine derivatives as a new class of inhibitors of RET and its drug resistance mutants” (Eur J Med Chem, 2018)",
  "key": {"[1]": {"target": "Receptor-type tyrosine-protein kinase FLT3 (Homo sapiens, UniProt P36888)", "assay": "Inhibition of recombinant human FLT3 (564 to end residues) using EAIYAAPFAKKK as substrate incubated for 40 mins in presence of [gamma-33ATP] by scintillation counting based radiometry assay"}, "[2]": {"target": "Mast/stem cell growth factor receptor Kit (Homo sapiens, UniProt P10721)", "sequence (P10721 whole entry)": "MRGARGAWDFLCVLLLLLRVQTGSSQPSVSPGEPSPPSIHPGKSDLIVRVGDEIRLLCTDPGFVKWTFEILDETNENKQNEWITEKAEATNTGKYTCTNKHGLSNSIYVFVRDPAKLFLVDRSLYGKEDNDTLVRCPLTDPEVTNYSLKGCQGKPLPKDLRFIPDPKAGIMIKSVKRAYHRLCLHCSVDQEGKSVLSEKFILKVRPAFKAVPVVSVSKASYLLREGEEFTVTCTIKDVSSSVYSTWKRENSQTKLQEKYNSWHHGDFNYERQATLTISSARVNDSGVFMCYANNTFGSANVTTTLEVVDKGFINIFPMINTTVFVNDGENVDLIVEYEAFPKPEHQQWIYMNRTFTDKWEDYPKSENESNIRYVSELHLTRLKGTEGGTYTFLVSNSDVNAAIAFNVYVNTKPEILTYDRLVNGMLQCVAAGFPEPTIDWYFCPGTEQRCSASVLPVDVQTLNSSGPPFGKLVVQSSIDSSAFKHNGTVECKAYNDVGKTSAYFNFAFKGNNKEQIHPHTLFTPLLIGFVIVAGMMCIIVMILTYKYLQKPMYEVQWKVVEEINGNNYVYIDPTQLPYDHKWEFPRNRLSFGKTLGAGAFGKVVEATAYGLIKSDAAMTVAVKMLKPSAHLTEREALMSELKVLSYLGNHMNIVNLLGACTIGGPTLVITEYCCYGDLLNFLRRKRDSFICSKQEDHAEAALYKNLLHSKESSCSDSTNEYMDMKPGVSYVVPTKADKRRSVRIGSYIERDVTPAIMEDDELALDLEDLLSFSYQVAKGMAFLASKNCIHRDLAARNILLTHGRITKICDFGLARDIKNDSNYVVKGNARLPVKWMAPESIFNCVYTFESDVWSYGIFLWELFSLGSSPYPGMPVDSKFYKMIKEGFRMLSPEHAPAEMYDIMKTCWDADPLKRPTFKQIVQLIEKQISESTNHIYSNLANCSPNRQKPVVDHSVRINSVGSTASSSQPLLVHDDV", "assay": "Inhibition of recombinant human C-Kit using poly(Glu, Tyr) 4:1 as substrate incubated for 40 mins in presence of [gamma-33ATP] by scintillation counting based radiometry assay"}, "[3]": {"assay": "Tmax in Sprague-Dawley rat at 10 mg/kg, po measured upto 24 hrs by LC-MS/MS analysis", "assay_type": "ADME, organism-based", "details": "in vivo"}, "[4]": {"target": "Serine/threonine-protein kinase WNK3 (Homo sapiens, UniProt Q9BYP7)", "assay": "Inhibition of recombinant human WNK3 (1 to 434 residues) using myelin basic protein as substrate incubated for 40 mins in presence of [gamma33P]ATP by scintillation counting based radiometry assay"}, "[5]": {"assay": "Cmax in Sprague-Dawley rat at 10 mg/kg, po measured upto 24 hrs by LC-MS/MS analysis", "assay_type": "ADME, organism-based", "design": "route oral, dose 10 mg/kg, time <=24", "details": "in vivo"}, "[6]": {"assay": "Growth inhibition of human Ocut-2C cells incubated for 3 days by MTT assay", "assay_type": "functional", "details": "OCUT2C, 72 h, time 3 day"}, "[7]": {"target": "Serine/threonine-protein kinase TAO2 (Homo sapiens, UniProt Q9UL54)", "assay": "Inhibition of recombinant human TAO2 (1 to 320 residues) using myelin basic protein as substrate incubated for 40 mins in presence of [gamma33P]ATP by scintillation counting based radiometry assay"}, "Angiopoietin-1 receptor": {"target": "Angiopoietin-1 receptor (Homo sapiens, UniProt Q02763)", "assay": "Inhibition of recombinant human TIE2 (771 to end residues) using poly(Glu, Tyr) 4:1 as substrate incubated for 40 mins in presence of [gamma33P]ATP by scintillation counting based radiometry assay"}, "[8]": {"target": "Mitogen-activated protein kinase kinase kinase 7 (Homo sapiens, UniProt O43318)", "sequence (O43318 whole entry, the tested form may be a part)": "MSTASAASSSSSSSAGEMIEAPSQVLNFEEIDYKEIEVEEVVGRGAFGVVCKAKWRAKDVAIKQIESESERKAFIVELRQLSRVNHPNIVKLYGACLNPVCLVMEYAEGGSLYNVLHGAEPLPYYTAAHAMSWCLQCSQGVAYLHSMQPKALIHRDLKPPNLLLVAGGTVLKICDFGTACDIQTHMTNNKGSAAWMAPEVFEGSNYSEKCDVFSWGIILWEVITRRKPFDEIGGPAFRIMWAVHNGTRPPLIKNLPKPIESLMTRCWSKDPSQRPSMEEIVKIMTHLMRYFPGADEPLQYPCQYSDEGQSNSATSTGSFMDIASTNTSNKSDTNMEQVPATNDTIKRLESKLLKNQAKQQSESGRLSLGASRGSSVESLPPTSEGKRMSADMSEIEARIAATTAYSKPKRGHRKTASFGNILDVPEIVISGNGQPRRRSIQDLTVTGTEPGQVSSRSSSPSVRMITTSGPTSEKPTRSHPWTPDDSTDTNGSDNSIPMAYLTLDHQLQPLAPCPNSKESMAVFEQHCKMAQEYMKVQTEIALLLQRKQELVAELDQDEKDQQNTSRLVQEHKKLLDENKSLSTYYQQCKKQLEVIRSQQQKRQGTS", "assay": "Inhibition of recombinant human TAK1 (1 to 303 residues) using casein as substrate incubated for 40 mins in presence of [gamma33P]ATP by scintillation counting based radiometry assay"}, "MGC-803": {"system": "MGC-803", "assay": "Growth inhibition of human MGC-803 cells incubated for 3 days by MTT assay", "assay_type": "functional", "details": "MGC-803, 72 h, time 3 day"}, "[9]": {"target": "Proto-oncogene tyrosine-protein kinase receptor Ret (Homo sapiens, UniProt P07949, V804M)"}, "[10]": {"target": "Platelet-derived growth factor receptor beta (Homo sapiens, UniProt P09619)", "assay": "Inhibition of human PDGFRbeta (557 to end residues) using poly(Glu, Tyr) 4:1 as substrate measured after 40 mins in presence of [gamma33P]ATP by scintillation counting based radiometry assay"}, "Mus musculus [11]": {"species_on_record": "Mus musculus", "details": "NOD-SCID, dose 30.0 mg/kg, time 18.0 day"}, "[12]": {"target": "Platelet-derived growth factor receptor alpha (Homo sapiens, UniProt P16234)", "assay": "Inhibition of human PDGFRalpha (550 to end residues) using poly(Glu, Tyr) 4:1 as substrate measured after 40 mins in presence of [gamma33P]ATP by scintillation counting based radiometry assay"}, "L02": {"system": "L02", "assay": "Growth inhibition of human L02 cells incubated for 3 days by MTT assay", "assay_type": "functional", "details": "L02, 72 h, time 3 day"}, "CDK4/Cyclin D3": {"target": "CDK4/Cyclin D3 (Homo sapiens, UniProt P11802)", "assay": "Inhibition of recombinant full length human CDK4/CyclinD3 using Rb fragment as substrate incubated for 40 mins in presence of [gamma-33ATP] by scintillation counting based radiometry assay", "assay_type": "protein-complex assay"}, "[13]": {"target": "Tyrosine-protein kinase FRK (Homo sapiens, UniProt P42685)", "sequence (P42685 whole entry)": "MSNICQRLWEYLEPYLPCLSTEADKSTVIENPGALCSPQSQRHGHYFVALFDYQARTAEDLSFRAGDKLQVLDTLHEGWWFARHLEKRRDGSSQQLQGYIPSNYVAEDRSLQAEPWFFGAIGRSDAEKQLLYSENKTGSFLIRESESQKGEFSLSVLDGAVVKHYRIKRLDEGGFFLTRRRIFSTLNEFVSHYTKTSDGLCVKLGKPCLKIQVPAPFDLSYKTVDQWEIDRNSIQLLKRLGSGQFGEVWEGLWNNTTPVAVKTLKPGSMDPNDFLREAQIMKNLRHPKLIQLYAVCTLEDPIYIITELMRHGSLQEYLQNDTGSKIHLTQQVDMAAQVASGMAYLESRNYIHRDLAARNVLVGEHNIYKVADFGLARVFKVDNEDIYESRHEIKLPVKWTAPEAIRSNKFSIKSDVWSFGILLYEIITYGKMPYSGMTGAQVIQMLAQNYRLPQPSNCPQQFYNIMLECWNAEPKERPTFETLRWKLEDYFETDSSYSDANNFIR", "assay": "Inhibition of recombinant human PTK5 (218 to end residues) using GGEEEEYFELVKKKK as substrate incubated for 40 mins in presence of [gamma33P]ATP by scintillation counting based radiometry assay"}, "[14]": {"target": "High affinity nerve growth factor receptor (Homo sapiens, UniProt P04629)"}, "[15]": {"assay": "Growth inhibition of human C643 cells incubated for 3 days by MTT assay", "assay_type": "functional", "details": "C643, 72 h, time 3 day"}, "[16]": {"target": "Tyrosine-protein kinase HCK (Homo sapiens, UniProt P08631)", "sequence (P08631 whole entry, the tested form may be a part)": "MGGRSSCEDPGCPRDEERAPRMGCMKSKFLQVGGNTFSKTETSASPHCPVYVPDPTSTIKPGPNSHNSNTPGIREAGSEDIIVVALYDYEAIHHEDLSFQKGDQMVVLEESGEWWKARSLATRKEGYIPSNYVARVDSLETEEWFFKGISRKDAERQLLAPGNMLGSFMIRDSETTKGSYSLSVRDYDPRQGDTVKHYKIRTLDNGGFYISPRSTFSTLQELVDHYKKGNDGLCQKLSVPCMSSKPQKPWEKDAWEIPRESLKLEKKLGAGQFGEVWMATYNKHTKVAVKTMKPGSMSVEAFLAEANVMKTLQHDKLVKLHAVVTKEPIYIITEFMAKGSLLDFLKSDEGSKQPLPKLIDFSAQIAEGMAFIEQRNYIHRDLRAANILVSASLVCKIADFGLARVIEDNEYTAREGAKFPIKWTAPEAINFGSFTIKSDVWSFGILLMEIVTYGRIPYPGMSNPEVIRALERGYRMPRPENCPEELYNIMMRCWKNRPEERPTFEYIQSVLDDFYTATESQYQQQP", "assay": "Inhibition of human HCK (230 to 497 residues) using […] as substrate after 40 mins by [gamma-33ATP] radiometric assay"}, "[17]": {"assay": "Growth inhibition of mouse L929 cells incubated for 3 days by MTT assay", "assay_type": "cell-based", "details": "time 3 day"}, "Mus musculus [18]": {"species_on_record": "Mus musculus", "details": "NOD-SCID, dose 30.0 mg/kg, time 18.0 day", "remark": "listed apart in the source"}, "[19]": {"assay": "Growth inhibition of […] NIH3T3 cells incubated for 3 days by MTT assay", "assay_type": "functional", "details": "NIH3T3, 72 h; time 3 day"}, "Ramos": {"system": "Ramos", "assay": "Growth inhibition of human Ramos cells incubated for 3 days by MTT assay", "assay_type": "functional", "details": "72 h, time 3 day"}, "NCI-H1975": {"system": "NCI-H1975", "assay": "Growth inhibition of human NCI-H1975 cells incubated for 3 days by MTT assay", "assay_type": "functional", "details": "NCI-H1975, 72 h, time 3 day"}, "Ephrin type-B receptor 1": {"target": "Ephrin type-B receptor 1 (Homo sapiens, UniProt P54762)", "sequence (P54762 whole entry)": "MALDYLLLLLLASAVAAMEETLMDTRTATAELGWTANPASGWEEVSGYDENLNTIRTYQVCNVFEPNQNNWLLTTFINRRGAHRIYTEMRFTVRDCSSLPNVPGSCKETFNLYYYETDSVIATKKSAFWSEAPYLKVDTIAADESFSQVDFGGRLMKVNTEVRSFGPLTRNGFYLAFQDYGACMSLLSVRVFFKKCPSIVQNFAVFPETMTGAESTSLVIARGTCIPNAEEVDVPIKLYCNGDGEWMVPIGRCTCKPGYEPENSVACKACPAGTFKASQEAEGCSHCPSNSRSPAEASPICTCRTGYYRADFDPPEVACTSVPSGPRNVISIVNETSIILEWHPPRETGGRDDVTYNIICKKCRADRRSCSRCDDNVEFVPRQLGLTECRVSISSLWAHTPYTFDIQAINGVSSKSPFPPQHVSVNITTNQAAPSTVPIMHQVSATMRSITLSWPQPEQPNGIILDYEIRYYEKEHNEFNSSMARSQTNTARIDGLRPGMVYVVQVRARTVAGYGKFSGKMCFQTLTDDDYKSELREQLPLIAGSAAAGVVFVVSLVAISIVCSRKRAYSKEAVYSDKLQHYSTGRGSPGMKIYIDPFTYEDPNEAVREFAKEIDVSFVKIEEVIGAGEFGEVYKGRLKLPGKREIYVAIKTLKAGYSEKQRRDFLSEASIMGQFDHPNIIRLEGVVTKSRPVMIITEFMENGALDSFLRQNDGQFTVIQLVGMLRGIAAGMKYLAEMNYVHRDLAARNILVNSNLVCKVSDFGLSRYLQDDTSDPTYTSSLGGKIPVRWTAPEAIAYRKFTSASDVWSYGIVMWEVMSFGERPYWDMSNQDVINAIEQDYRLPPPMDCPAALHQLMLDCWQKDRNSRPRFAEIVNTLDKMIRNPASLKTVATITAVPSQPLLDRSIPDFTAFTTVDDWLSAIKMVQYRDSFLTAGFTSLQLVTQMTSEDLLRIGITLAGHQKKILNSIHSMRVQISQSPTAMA", "assay": "Inhibition of recombinant human EphB1 (564 to end residues) using KVEKIGEGTYGVVYK as substrate incubated for 40 mins in presence of [gamma-33ATP] by scintillation counting based radiometry assay"}, "[20]": {"assay": "AUC (0 to t) in Sprague-Dawley rat at 10 mg/kg, po measured upto 24 hrs by LC-MS/MS analysis", "assay_type": "ADME, organism-based", "design": "route oral, dose 10 mg/kg, time <=24", "details": "in vivo"}, "[21]": {"target": "Homeodomain-interacting protein kinase 4 (Homo sapiens, UniProt Q8NE63)", "assay": "Inhibition of human HIPK4 using RRRFRPASPLRGPPK as substrate after 40 mins by [gamma-33ATP] radiometric assay"}, "[22]": {"target": "Mitogen-activated protein kinase 12 (Homo sapiens, UniProt P53778)", "sequence (P53778 whole entry)": "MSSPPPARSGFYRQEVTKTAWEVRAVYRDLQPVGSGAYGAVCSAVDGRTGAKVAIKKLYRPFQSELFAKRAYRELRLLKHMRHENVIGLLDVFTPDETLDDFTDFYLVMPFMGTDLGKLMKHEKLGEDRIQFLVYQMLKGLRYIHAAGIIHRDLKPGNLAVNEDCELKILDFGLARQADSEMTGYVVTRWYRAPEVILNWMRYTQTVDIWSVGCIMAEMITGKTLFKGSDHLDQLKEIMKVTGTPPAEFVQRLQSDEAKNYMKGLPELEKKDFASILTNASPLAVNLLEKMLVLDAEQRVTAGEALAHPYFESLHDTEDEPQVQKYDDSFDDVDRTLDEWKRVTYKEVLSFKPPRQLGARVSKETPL", "assay": "Inhibition of recombinant human full length SAPK3 using myelin basic protein as substrate incubated for 40 mins in presence of [gamma33P]ATP by scintillation counting based radiometry assay"}, "[23]": {"target": "RAF proto-oncogene serine/threonine-protein kinase (Homo sapiens, UniProt P04049)", "assay": "Inhibition of recombinant human C-Raf (306 to end residues) poly(Glu, Tyr) 4:1 as substrate incubated 40 mins in presence of [gamma-33ATP] by scintillation counting based radiometry assay"}, "[24]": {"target": "Mitogen-activated protein kinase 13 (Homo sapiens, UniProt O15264)", "assay": "Inhibition of recombinant human full length SAPK4 using myelin basic protein as substrate incubated for 40 mins in presence of [gamma33P]ATP by scintillation counting based radiometry assay"}, "NIH3T3": {"system": "NIH3T3", "details": "Homo sapiens, dose 10-30 mg/kg, time 18.0 day"}, "[25]": {"target": "Macrophage colony-stimulating factor 1 receptor (Homo sapiens, UniProt P07333)"}, "Mus musculus [26]": {"species_on_record": "Mus musculus", "details": "NOD-SCID, dose 30.0 mg/kg, time 18.0 day", "remark": "listed apart in the source"}, "[27]": {"target": "Fibroblast growth factor receptor 1 (Homo sapiens, UniProt P11362)", "sequence (P11362 whole entry)": "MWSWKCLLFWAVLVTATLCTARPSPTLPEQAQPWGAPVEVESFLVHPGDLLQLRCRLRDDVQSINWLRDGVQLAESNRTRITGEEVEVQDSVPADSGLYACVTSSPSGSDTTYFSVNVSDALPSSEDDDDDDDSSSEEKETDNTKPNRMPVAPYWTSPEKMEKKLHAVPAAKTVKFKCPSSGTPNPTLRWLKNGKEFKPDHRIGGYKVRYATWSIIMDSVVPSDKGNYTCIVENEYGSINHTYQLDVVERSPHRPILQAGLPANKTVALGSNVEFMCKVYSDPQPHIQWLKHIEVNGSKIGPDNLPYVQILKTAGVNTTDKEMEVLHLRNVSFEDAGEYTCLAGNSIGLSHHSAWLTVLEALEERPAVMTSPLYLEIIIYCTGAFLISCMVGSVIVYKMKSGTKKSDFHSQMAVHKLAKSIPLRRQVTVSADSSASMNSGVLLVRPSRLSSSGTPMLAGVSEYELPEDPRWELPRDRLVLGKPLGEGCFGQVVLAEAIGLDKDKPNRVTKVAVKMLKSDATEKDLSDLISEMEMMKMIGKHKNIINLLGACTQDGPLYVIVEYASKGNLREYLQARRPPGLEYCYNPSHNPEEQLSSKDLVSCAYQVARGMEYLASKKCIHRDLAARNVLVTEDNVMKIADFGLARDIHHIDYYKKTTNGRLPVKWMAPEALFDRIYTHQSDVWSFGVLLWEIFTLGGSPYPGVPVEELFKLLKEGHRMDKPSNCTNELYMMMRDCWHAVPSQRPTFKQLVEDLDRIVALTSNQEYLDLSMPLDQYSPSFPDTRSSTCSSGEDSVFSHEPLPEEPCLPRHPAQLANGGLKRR"}},
  "note": "Calls of active or inactive are those of the source. The rule behind the calls is not given here.",
  "data": [
    {"smiles": "CC(C)(C)c1cc(NC(=O)Nc2ccc(Nc3ncnc4c3OCCCN4)cc2)no1", "values": [
      {"measurement": "IC50", "setting": "[1]", "value": 0.013, "unit": "µM"},
      {"measurement": "IC50", "setting": "[2]", "value": 0.218, "unit": "µM"},
      {"measurement": "Tmax", "setting": "[3]", "value": 15, "unit": "min"},
      {"measurement": "IC50", "setting": "[4]", "value": 0.494, "unit": "µM"},
      {"measurement": "Cmax", "setting": "[5]", "value": 263, "unit": "µg/mL"},
      {"measurement": "GI50", "setting": "[6]", "value": "> 10", "unit": "µM"},
      {"measurement": "IC50", "setting": "[7]", "value": 0.903, "unit": "µM"},
      {"measurement": "IC50", "setting": "Angiopoietin-1 receptor", "value": 0.408, "unit": "µM"},
      {"measurement": "IC50", "setting": "[8]", "value": 0.484, "unit": "µM"},
      {"measurement": "GI50", "setting": "MGC-803", "value": 4.31, "unit": "µM"},
      {"measurement": "IC50", "setting": "[9]", "value": 0.015, "unit": "µM"},
      {"measurement": "IC50", "setting": "[10]", "value": 0.686, "unit": "µM"},
      {"measurement": "inhibition", "setting": "Mus musculus [11]", "value": "Active"},
      {"measurement": "IC50", "setting": "[12]", "value": 0.262, "unit": "µM"},
      {"measurement": "GI50", "setting": "L02", "value": "> 10", "unit": "µM"},
      {"measurement": "IC50", "setting": "CDK4/Cyclin D3", "value": 1.11, "unit": "µM"},
      {"measurement": "IC50", "setting": "[13]", "value": 0.051, "unit": "µM"},
      {"measurement": "IC50", "setting": "[14]", "value": 0.071, "unit": "µM"},
      {"measurement": "GI50", "setting": "[15]", "value": "> 10", "unit": "µM"},
      {"measurement": "IC50", "setting": "[16]", "value": 0.087, "unit": "µM"},
      {"measurement": "GI50 at 72 h", "setting": "[17]", "value": "> 10", "unit": "µM"},
      {"measurement": "inhibition", "setting": "Mus musculus [18]", "value": "Active"},
      {"measurement": "GI50", "setting": "[19]", "value": "> 10", "unit": "µM"},
      {"measurement": "GI50", "setting": "Ramos", "value": "> 10", "unit": "µM"},
      {"measurement": "GI50", "setting": "NCI-H1975", "value": "> 10", "unit": "µM"},
      {"measurement": "IC50", "setting": "Ephrin type-B receptor 1", "value": 0.388, "unit": "µM"},
      {"measurement": "AUC(0-t) at 24 h", "setting": "[20]", "value": 441, "unit": "µg·h/mL"},
      {"measurement": "IC50", "setting": "[21]", "value": 0.127, "unit": "µM"},
      {"measurement": "IC50", "setting": "[22]", "value": 0.199, "unit": "µM"},
      {"measurement": "IC50", "setting": "[23]", "value": 0.232, "unit": "µM"},
      {"measurement": "IC50", "setting": "[24]", "value": 0.214, "unit": "µM"},
      {"measurement": "TGI", "setting": "NIH3T3", "value": "Dose-dependent effect"},
      {"measurement": "IC50", "setting": "[25]", "value": 0.009, "unit": "µM"},
      {"measurement": "inhibition", "setting": "Mus musculus [26]", "value": "Active"},
      {"measurement": "IC50", "setting": "[27]", "value": 0.868, "unit": "µM"}
    ]}
  ]
}
